# Experiments:
# [1] = molecular target: Protein phosphatase 3 catalytic subunit alpha (Homo sapiens, UniProt Q08209); design: species or system Escherichia coli;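 note: inhibition of calcineurin (PP2B) enzyme activity, measured with DiFMUP as the substrate; in other assays of this panel Not Active means under 50% inhibition at 10 µM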
# [2] = molecular target: Sigma non-opioid intracellular receptor 1 (Homo sapiens, UniProt Q99720); assay: DRUGMATRIX: Sigma1 radioligand binding (ligand: [3H] Haloperidol); assay type: cell membranes, Jurkat, Membrane; settings: jurkat; Not Active = under 50% inhibition at 10 µM
# [3] = molecular target: Platelet-activating factor receptor (Homo sapiens, UniProt P25105); assay: biochemical; assay type: tissue-based; settings: platelet; note: in other assays of this panel Not Active means under 50% inhibition at 10 µM
# Adenosine receptor A2a = Adenosine receptor A2a (Homo sapiens, UniProt P29274); assay: DRUGMATRIX: Adenosine A2A radioligand binding (ligand: […]); assay type: cell membranes, HEK293, Membrane; settings: hek293; Not Active = under 50% inhibition at 10 µM
# [4] = molecular target: T1, 3-hydroxy-3-methylglutaryl-coenzyme A reductase (Homo sapiens, UniProt P04035); design: species or system Escherichia coli;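 note: enzyme inhibition assay of HMG-CoA reductase using radiolabeled [14C]HMG-CoA as substrate; in other assays of this panel Not Active means under 50% inhibition at 10 µM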
# T1 sequence (P04035 whole entry): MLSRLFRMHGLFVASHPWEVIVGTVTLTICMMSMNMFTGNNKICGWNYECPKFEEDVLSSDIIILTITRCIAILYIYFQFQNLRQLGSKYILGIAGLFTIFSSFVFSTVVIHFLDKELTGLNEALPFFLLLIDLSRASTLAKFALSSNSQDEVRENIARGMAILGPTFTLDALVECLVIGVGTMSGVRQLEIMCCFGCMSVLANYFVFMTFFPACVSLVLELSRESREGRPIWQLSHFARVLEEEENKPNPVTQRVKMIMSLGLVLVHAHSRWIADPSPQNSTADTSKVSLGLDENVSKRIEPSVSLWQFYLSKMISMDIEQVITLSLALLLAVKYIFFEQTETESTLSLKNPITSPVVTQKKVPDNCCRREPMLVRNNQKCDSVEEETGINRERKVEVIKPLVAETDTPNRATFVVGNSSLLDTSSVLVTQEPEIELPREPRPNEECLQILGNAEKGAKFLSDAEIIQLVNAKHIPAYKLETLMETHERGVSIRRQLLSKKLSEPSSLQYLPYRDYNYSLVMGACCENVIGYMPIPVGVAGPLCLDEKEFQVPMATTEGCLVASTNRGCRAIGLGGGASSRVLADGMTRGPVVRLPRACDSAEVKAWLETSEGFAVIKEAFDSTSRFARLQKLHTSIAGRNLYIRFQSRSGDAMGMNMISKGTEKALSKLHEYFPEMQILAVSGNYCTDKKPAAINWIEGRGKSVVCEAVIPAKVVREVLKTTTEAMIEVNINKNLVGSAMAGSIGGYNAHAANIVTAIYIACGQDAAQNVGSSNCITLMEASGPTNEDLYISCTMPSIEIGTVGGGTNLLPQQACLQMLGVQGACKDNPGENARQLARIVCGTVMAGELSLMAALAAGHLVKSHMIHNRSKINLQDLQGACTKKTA
# [5] = DRUGMATRIX: Phosphodiesterase PDE4 enzyme inhibition (substrate: [3H]cAMP + cAMP); settings: u-937; Not Active = under 50% inhibition at 10 µM
# [6] = molecular target: 5-hydroxytryptamine receptor 2B (Homo sapiens, UniProt P41595); assay type: cell membranes, CHO-K1, Membrane; settings: cho-k1; note: in other assays of this panel Not Active means under 50% inhibition at 10 µM
# [7] = DRUGMATRIX: Imidazoline I2, Central radioligand binding (ligand: [3H] Idazoxan); assay type: cell membranes, Rattus norvegicus, Wistar, Cerebral cortex, Membrane; settings: Not Active = under 50% inhibition at 10 µM
# Progesterone receptor = molecular target: T2, Progesterone receptor (Bos taurus, UniProt Q690N0); assay: DRUGMATRIX: Progesterone radioligand binding (ligand: [3H] R-5020); assay type: tissue-based, Uterus; settings: Not Active = under 50% inhibition at 10 µM
# T2 sequence (Q690N0 whole entry): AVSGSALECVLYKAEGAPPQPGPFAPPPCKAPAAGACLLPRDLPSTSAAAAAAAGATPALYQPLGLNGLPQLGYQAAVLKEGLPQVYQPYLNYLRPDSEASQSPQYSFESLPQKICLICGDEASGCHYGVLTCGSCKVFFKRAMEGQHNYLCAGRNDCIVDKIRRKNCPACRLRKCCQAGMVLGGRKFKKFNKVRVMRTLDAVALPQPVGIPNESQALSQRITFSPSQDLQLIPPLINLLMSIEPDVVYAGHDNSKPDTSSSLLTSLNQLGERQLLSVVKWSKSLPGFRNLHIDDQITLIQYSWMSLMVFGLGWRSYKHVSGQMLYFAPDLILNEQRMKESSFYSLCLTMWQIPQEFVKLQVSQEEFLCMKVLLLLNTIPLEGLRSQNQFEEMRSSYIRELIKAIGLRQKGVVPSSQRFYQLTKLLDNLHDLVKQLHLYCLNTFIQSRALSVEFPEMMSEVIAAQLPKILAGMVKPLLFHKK
# [8] = molecular target: C-C chemokine receptor type 2 (Homo sapiens, UniProt P41597); assay type: cell membranes, CHO-K1, Membrane; settings: cho-k1; note: in other assays of this panel Not Active means under 50% inhibition at 10 µM
# [9] = molecular target: T3, Neuropeptide Y receptor type 2 (Homo sapiens, UniProt P49146); assay type: cell membranes, Membrane; settings: kan-ts; note: in other assays of this panel Not Active means under 50% inhibition at 10 µM
# T3 sequence (P49146 whole entry): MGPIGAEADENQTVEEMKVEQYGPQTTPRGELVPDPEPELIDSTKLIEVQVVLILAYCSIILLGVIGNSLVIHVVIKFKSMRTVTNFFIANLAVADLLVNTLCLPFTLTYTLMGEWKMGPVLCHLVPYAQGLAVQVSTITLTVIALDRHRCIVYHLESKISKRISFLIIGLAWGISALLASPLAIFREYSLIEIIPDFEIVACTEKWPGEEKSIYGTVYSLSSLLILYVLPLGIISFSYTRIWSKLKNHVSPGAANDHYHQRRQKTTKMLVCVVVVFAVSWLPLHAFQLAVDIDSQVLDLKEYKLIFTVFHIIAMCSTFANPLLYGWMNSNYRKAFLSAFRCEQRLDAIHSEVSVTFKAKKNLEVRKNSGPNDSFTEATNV
# Acetylcholinesterase = Acetylcholinesterase (Homo sapiens, UniProt P22303); assay: DRUGMATRIX: Acetylcholinesterase enzyme inhibition (substrate: acetylthiocholine); assay type: cell-based, HEK293; settings: hek293; Not Active = under 50% inhibition at 10 µM
# Sequence of Acetylcholinesterase (P22303 whole entry): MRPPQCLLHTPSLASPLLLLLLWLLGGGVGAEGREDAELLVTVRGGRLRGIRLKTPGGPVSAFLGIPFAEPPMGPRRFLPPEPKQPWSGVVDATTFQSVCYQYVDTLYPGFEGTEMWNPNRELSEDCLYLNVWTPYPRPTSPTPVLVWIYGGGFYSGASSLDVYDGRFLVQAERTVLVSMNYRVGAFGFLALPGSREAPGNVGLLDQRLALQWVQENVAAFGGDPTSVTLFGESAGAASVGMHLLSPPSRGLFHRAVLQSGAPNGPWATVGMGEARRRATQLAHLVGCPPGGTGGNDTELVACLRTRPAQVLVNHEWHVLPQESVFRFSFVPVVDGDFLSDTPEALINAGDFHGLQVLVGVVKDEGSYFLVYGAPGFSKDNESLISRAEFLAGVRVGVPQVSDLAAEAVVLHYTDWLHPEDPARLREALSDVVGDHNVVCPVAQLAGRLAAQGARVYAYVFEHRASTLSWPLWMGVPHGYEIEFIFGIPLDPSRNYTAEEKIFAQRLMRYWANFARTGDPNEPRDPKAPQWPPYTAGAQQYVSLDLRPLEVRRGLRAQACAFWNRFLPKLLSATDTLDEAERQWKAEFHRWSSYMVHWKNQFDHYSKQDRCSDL
# Sequence of Adenosine receptor A2a (P29274 whole entry): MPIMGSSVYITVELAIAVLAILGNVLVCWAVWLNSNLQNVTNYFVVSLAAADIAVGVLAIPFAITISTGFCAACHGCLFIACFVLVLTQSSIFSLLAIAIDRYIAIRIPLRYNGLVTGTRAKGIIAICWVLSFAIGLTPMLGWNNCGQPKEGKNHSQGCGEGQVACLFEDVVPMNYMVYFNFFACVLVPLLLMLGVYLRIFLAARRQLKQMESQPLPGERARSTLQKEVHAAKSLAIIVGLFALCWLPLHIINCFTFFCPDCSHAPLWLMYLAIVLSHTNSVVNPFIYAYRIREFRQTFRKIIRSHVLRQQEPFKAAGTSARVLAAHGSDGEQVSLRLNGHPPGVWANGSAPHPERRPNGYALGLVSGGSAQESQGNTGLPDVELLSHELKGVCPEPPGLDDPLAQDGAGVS
# Sequence of 5-hydroxytryptamine receptor 2B (P41595 whole entry): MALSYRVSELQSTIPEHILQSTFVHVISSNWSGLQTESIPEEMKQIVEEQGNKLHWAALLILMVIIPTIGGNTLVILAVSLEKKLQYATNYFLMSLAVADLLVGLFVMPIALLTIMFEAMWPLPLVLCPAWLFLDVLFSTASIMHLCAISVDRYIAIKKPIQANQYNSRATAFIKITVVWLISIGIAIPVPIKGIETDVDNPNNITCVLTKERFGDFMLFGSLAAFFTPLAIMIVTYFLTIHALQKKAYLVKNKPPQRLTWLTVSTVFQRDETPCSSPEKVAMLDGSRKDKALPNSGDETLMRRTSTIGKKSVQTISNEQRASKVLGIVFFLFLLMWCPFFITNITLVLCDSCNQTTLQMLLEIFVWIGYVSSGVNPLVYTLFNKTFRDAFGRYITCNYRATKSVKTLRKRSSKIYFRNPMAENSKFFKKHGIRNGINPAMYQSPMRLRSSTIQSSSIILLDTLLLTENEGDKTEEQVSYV
# Sequence of Sigma non-opioid intracellular receptor 1 (Q99720 whole entry): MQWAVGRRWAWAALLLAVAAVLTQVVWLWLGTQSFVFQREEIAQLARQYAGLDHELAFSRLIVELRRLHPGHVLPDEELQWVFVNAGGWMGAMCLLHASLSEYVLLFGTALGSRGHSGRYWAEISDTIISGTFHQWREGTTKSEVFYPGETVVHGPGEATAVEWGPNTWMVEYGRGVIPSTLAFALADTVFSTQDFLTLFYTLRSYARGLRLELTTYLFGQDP
# Sequence of C-C chemokine receptor type 2 (P41597 whole entry): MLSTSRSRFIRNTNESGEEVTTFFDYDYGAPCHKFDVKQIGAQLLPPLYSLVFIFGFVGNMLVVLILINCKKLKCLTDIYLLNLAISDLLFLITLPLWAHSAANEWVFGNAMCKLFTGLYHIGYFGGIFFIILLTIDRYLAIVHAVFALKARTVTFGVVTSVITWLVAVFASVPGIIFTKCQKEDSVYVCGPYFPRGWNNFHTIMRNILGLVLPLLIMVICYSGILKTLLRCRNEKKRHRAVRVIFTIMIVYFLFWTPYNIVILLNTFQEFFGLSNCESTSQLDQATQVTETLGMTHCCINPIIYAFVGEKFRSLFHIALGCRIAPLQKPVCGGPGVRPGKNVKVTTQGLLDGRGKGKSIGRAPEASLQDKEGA
# Sequence of Platelet-activating factor receptor (P25105 whole entry): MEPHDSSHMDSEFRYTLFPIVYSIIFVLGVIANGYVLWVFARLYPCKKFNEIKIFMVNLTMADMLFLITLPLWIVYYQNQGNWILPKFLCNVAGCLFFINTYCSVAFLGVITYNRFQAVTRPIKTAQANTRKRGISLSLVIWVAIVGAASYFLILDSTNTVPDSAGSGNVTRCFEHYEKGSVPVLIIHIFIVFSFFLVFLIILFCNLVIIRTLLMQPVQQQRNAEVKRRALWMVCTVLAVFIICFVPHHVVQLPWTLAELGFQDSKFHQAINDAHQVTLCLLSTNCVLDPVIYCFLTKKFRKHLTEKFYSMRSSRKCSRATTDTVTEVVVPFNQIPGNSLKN
SMILES,IC50 [1],IC50 [2],IC50 [3],IC50 (Adenosine receptor A2a),IC50 ([4]; read-out: IC50) [nM],IC50 [5],Ki [5],IC50 [6],IC50 [7],Ki [7],IC50 (Progesterone receptor),IC50 [8],IC50 [9],IC50 (Acetylcholinesterase),IC50 [4]
CC(C)n1c(/C=C/C(O)CC(O)CC(=O)O)c(-c2ccc(F)cc2)c2ccccc21 (centres undefined) [FLUVASTATIN],Not Active,Not Active,Not Active,Not Active,0.353,Not Active,Not Active,Not Active,Not Active,Not Active,Not Active,Not Active,Not Active,Not Active,
O=C1OCCN1/N=C/c1ccc([N+](=O)[O-])o1 [FURAZOLIDONE],Not Active,Not Active,Not Active,Not Active,,Not Active,Not Active,Not Active,Not Active,Not Active,Not Active,Not Active,Not Active,Not Active,Not Active
NCC1(CC(=O)O)CCCCC1 [GABAPENTIN],Not Active,Not Active,Not Active,Not Active,,Not Active,Not Active,Not Active,Not Active,Not Active,Not Active,Not Active,Not Active,Not Active,Not Active
CC[N+](CC)(CC)CCOc1cccc(OCC[N+](CC)(CC)CC)c1OCC[N+](CC)(CC)CC.[I-].[I-].[I-] [GALLAMINE TRIETHIODIDE],Not Active,Not Active,Not Active,Not Active,,Not Active,Not Active,Not Active,Not Active,Not Active,Not Active,Not Active,Not Active,Not Active,Not Active
Nc1nc2c(ncn2COC(CO)CO)c(=O)[nH]1 [GANCICLOVIR],Not Active,Not Active,Not Active,Not Active,,Not Active,Not Active,Not Active,Not Active,Not Active,Not Active,Not Active,Not Active,Not Active,Not Active
COc1c(N2CCNC(C)C2)c(F)cc2c(=O)c(C(=O)O)cn(C3CC3)c12 (centres undefined) [GATIFLOXACIN],Not Active,Not Active,Not Active,Not Active,,Not Active,Not Active,Not Active,Not Active,Not Active,Not Active,Not Active,Not Active,Not Active,Not Active
NCC(=O)O [GLYCINE],Not Active,Not Active,Not Active,Not Active,,Not Active,Not Active,Not Active,Not Active,Not Active,Not Active,Not Active,Not Active,Not Active,Not Active
CC1(C)[C@@H](O[C@H]2O[C@H](C(=O)O)[C@@H](O)[C@H](O)[C@H]2O[C@@H]2O[C@H](C(=O)O)[C@@H](O)[C@H](O)[C@H]2O)CC[C@]2(C)[C@H]3C(=O)C=C4[C@@H]5C[C@@](C)(C(=O)O)CC[C@]5(C)CC[C@@]4(C)[C@]3(C)CC[C@@H]12 [GLYCYRRHIZIN],Not Active,Not Active,Not Active,Not Active,,Not Active,Not Active,Not Active,Not Active,Not Active,Not Active,Not Active,Not Active,Not Active,Not Active
COC1=CC(=O)C[C@@H](C)[C@]12Oc1c(Cl)c(OC)cc(OC)c1C2=O [GRISEOFULVIN],Not Active,Not Active,Not Active,Not Active,,Not Active,Not Active,Not Active,Not Active,Not Active,Not Active,Not Active,Not Active,Not Active,Not Active
NS(=O)(=O)c1cc2c(cc1Cl)NCNS2(=O)=O [HYDROCHLOROTHIAZIDE],Not Active,Not Active,Not Active,Not Active,,Not Active,Not Active,Not Active,Not Active,Not Active,Not Active,Not Active,Not Active,Not Active,Not Active
O=P1(NCCCl)OCCCN1CCCl (centres undefined) [IFOSFAMIDE],Not Active,Not Active,Not Active,Not Active,,Not Active,Not Active,Not Active,Not Active,Not Active,Not Active,Not Active,Not Active,Not Active,Not Active

# — ChEMBL document CHEMBL1909046, “DrugMatrix in vitro pharmacology data”
